Tests used:
[1] = system: Lewis Lung Carcinoma (LLC); experiment: In vivo anticancer activity toward Lewis Lung Carcinoma (LLC); conditions: LLC in C57BL mice, 27 at 7.5 mg/kg, CDDP at 1.5 mg/kg
Text: (§1) Besides, it was as cytotoxic as 19 towards cancer cells while showing a more favorable selectivity index. On these basis, compound 27 was chosen for in vivo experiments against a syngeneic murine solid tumor model, the murine Lewis Lung Carcinoma (LLC). The tumor growth inhibition induced by 27 was compared with that promoted by cisplatin (CDDP), the most common chemotherapeutic drug used in the treatment of lung cancers. Nine days after tumor inoculation, tumor-bearing mice were randomized into vehicle control and treatment groups (8 mice per group). Control mice received the vehicle (0.2%v/v EtOH and 99.8%v/v of a saline solution), whereas treated groups received daily doses of 27 (7.5 mg · kg^−1 in the vehicle solution composed of 0.2%v/v EtOH and 99.8%v/v of saline solution) or CDDP (1.5 mg · kg^−1 in saline solution). Tumor growth was estimated at day 20 (Fig. 7a). As an indication of the adverse side effects, changes in the body weights of tumor-bearing mice were monitored at day 1 and daily from day 9.
Figure 7 In vivo testing of compound 27. Lewis lung carcinoma (LLC) was implanted i.m. (2 · 10^6 cells inoculum) into the right hind leg of 8-week old imbred C57BL mice. Nine days after tumor inoculation (palpable tumor), tumor-bearing mice were randomized into vehicle control and treatment groups (8 mice per group). Compound 27 was dosed daily at 7.5 mg/kg ip and CDDP was dosed daily at 1.5 mg/kg ip. At day 20, animals were sacrificed (i.e., before tumor can cause the animal discomfort), the legs were amputated at the proximal end of the femur, and the inhibition of tumor growth was determined according to the difference in weight of the tumor-bearing leg and the healthy leg of the animals expressed as % referred to the control animals. Control was constituted by vehicle (0.2%v/v EtOH and 99.8%v/v of saline solution). CDDP was used as positive reference. Both 27 and CDDP were administered at the highest not toxic doses (7.5 and 1.5 mg/kg, respectively), as determined by MTD studies. (a) Average tumor weight (g) after 20 days of treatment with control or compounds. (b) Percentage of reduction in tumor growth after 20 days of treatment with respect to control mice. (c) Body weight changes. The body weight changes of LLC bearing C57BL mice treated with vehicle or tested compounds. Each drug was administered daily after 9 days from the tumor cell inoculum. Weights were measured at day 1 and daily from day 9. Error bars indicate the standard deviation.
All studies involving animal testing were carried out in accordance with the ethical guidelines for animal research adopted by the University of Padua, acknowledging the Italian regulation (D.L.G.S. 116/92) and European Directive 86/609/EEC as to the animal welfare and protection and the related codes of practice. […]

[2] = Body weight changes of LLC bearing mice; type: in vivo; conditions: LLC bearing C57BL mice, 27 daily 7.5 mg/kg ip
Text: as §1, with “Control mice received the vehicle (0.2%v/v EtOH and 99.8%v/v of a saline solution), whereas treated groups received daily doses of 27 (7.5 mg · kg^−1 in the vehicle solution composed of 0.2%v/v EtOH and 99.8%v/v of saline solution) or CDDP (1.5 mg · kg^−1 in saline solution). Tumor growth was estimated at day 20 (Fig. 7a).” left out
Figure 7 In vivo testing of compound 27. […] At day 20, animals were sacrificed (i.e., before tumor can cause the animal discomfort), the legs were amputated at the proximal end of the femur, and the inhibition of tumor growth was determined according to the difference in weight of the tumor-bearing leg and the healthy leg of the animals expressed as % referred to the control animals. […] Both 27 and CDDP were administered at the highest not toxic doses (7.5 and 1.5 mg/kg, respectively), as determined by MTD studies. […] Weights were measured at day 1 and daily from day 9. […]

## O=C(CN1CCOCC1)Nc1cccc(-c2cc(Nc3ccc(NC(=O)Nc4ccccc4)cc3)ncn2)c1 [Compound 27]
[1]; daily ip from day 9, day 20, versus vehicle control
  Inhibition of tumor growth (%): 84.7%
[1]; daily ip from day 9, day 20
  Average tumor weight (mean±S.D., g): 0.075 ± 0.03 g
[2]
  Body weight loss: < 10%

From PMC4645160, “Targeting kinases with anilinopyrimidines: discovery of N-phenyl-N’-[4-(pyrimidin-4-ylamino)phenyl]urea derivatives as selective inhibitors of class III receptor tyrosine kinase subfamily” (Scientific Reports, 2015)
